Our source for the Ki values is BindingDB's records for doi:10.1016/s0014-2999(99)00610-x (Hungarian Academy of Sciences, 1999).

The target of experiment [1] is Mu-type opioid receptor (Rattus norvegicus, UniProt P33535).
The target of experiment [2] is Kappa-type opioid receptor (Rattus norvegicus, UniProt P34975).
The target in experiment [3] is Mu-type opioid receptor (Cavia porcellus, UniProt P97266).
For experiment [4], the target named is Kappa-type opioid receptor (Cavia porcellus, UniProt P41144).
Sequence of Kappa-type opioid receptor (Cavia porcellus, UniProt P41144) (P41144 whole entry): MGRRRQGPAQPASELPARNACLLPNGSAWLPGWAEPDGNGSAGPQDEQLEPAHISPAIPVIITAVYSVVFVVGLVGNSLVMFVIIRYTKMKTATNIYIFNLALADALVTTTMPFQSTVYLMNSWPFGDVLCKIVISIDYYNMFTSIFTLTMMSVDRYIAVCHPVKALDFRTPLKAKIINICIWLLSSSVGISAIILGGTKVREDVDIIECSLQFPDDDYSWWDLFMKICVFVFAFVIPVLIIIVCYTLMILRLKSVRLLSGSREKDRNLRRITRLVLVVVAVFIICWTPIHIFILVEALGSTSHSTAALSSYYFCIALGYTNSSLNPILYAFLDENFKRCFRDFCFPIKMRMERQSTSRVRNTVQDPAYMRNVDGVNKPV
Experiment [5] deals with Delta-type opioid receptor (Rattus norvegicus, UniProt P33533).
Sequence of Delta-type opioid receptor (Rattus norvegicus, UniProt P33533) (P33533 whole entry): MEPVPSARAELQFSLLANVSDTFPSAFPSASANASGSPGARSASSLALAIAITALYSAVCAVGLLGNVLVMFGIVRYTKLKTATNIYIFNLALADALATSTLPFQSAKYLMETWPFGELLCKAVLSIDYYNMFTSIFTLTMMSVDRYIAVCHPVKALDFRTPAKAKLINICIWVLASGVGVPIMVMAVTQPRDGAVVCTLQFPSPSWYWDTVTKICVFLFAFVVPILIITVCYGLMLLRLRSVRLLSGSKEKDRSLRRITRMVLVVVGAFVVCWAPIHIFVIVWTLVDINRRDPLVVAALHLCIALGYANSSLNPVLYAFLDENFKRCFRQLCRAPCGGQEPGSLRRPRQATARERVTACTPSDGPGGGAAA
Experiment [6] concerns the target Delta-type opioid receptor (Sus scrofa, UniProt P79291).

Where “and” joins values, the source holds several entries; their conditions need not be identical. Equal values may be shown once. Where a SMILES comes first, the peptide text is derived from it. [ ]: non-standard residue; d: D form. Tic = O=C(O)[C@@H]1Cc2ccccc2CN1

Sequence of Delta-type opioid receptor (Sus scrofa, UniProt P79291) (P79291 whole entry): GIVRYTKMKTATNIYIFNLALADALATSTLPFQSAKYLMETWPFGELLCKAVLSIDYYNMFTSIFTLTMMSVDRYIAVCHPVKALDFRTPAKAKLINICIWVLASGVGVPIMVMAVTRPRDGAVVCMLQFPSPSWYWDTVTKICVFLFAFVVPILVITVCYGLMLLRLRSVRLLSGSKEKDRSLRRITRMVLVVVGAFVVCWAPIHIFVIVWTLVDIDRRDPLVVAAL
Sequence of Mu-type opioid receptor (Rattus norvegicus, UniProt P33535) (P33535 whole entry): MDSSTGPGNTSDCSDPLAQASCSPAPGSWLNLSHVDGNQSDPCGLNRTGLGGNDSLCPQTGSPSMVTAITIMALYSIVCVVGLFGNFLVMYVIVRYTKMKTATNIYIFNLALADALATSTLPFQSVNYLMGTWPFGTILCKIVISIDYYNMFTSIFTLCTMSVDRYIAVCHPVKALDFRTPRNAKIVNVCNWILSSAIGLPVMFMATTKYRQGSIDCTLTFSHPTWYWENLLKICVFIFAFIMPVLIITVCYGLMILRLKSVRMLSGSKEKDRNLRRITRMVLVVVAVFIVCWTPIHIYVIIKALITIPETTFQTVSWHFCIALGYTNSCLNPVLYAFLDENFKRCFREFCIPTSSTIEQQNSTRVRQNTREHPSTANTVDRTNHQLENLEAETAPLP
Sequence of Mu-type opioid receptor (Cavia porcellus, UniProt P97266) (P97266 whole entry): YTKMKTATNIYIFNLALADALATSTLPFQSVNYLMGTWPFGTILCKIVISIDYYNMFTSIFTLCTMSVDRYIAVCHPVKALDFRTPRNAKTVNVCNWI
Sequence of Kappa-type opioid receptor (Rattus norvegicus, UniProt P34975) (P34975 whole entry): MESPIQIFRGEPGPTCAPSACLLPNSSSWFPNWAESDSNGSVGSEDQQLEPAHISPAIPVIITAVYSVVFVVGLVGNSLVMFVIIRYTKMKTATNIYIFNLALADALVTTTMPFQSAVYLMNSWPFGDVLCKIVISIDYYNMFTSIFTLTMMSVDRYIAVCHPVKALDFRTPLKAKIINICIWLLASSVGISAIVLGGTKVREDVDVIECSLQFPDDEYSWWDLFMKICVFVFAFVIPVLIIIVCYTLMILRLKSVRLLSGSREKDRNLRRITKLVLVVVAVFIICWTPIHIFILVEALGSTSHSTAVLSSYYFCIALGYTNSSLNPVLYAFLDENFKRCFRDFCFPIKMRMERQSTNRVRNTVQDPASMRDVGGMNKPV

Take `COc1cccc2c1[C@]13CCN(CC4CC4)C(C2)[C@]1(OC)CCC(=O)C3`: the inhibitory constant (Ki) in experiment [1] is 8.1 nM and 5.4 nM; in experiment [2], 2190 nM; in experiment [3], 26.6 nM.
Turning to `C[C@@H](O)[C@H](NC(=O)[C@H]1NC(=O)[C@H]([C@@H](C)O)NC(=O)[C@H](CCCN=C(N)N)NC(=O)[C@@H](Cc2c[nH]c3ccccc23)NC(=O)[C@H](Cc2ccc(O)cc2)NC(=O)[C@@H](NC(=O)[C@H](N)Cc2ccccc2)CSSC1(C)C)C(N)=O`, the Ki in experiment [1] was 43.8 nM; in experiment [3] it was 48.1 nM.
Regarding `Oc1ccc2c3c1OC1c4[nH]c5c(c4CC4(O)CN(CCC314)C(C1CC1)C2)CC1(O)CN2CCC13c1c(ccc(O)c1OC53)CC2C1CC1` (stereo not given) [CAS_105618-26-6], the Ki worked out at 172 nM in experiment [2] and 770 nM in experiment [4].
The molecule `CN1CC[C@]23c4c5ccc(O)c4O[C@H]2[C@@H](O)CCC3[C@H]1C5` (stereo not given in full) [DIHYDROMORPHINE] had a Ki in experiment [3] of 6 nM.
For `CC(C)C[C@H](NC(=O)[C@H](Cc1ccccc1)NC(=O)CNC(=O)[C@@H](CO)NC(=O)[C@@H](N)Cc1ccc(O)cc1)C(=O)N[C@H](C(=O)O)[C@@H](C)O` [DSLET-OH], the Ki is 9.8 nM in experiment [5] and 6.3 nM in experiment [6].
With `N[C@@H](Cc1ccc(O)cc1)C(=O)N1Cc2ccccc2C[C@H]1C(=O)N[C@@H](Cc1ccccc1)C(=O)N[C@@H](Cc1ccccc1)C(=O)O` [TIPP] (H-Y[Tic]FF-OH), the Ki in experiment [5] came out at 2830 nM; in experiment [6], 7060 nM.
The matching figures for `CC(C)[C@H](NC(=O)[C@H](CCC(=O)O)NC(=O)[C@H](Cc1ccccc1)NC(=O)[C@@H](C)NC(=O)[C@@H](N)Cc1ccc(O)cc1)C(=O)N[C@H](C(=O)NCC(N)=O)C(C)C` [Tyr-D-Ala-Phe-Glu-Val-Val-GlyNH2]: 1190 nM and 2880 nM.
In the case of `C[C@@H](NC(=O)[C@@H](N)Cc1ccc(O)cc1)C(=O)NCC(=O)N(C)[C@@H](Cc1ccccc1)C(=O)NCCO` [[tyrosyl-3,5-3H(N)]-D-Ala2-Mephe4-glyol5-enkephalin], the affinity in experiment [3] corresponds to a Ki of 2.6 nM.
